Reference: patent US7097848B2, “Synergistic insecticidal mixtures” (Bayer Cropscience AG, priority 2002, dated 2006)

Tests used:
Type in all cases: in vivo
[1] = tested on: cotton aphid (Aphis gossypii); assay: Aphis gossypii test (cotton leaf dip); conditions: Table O (Example O); activity found
Source text: (§1) The expected activity for a given combination of two active compounds can be calculated as follows (cf. Carpenter, C. S., “Mammalian Toxicity of 1-naphthyl-N-methylcarbamate [Sevin Insecticide]”, Agricultural and Food Chemistry, Vol. 9, No. 1, pages 30–39, 1961):
(§2) If • Pa is the proportion of active compound A in the mixture, • Pb is the proportion of active compound B in the mixture, • LC50 (or 95)a is the concentration at which 50% (or 95%) of the animals treated with active compound A are killed and • LC50 (or 95)b is the concentration at which 50% (or 95%) of the animals treated with active compound B are killed,
(§3) If the calculated LC50 (or 95) exceeds the value actually obtained and is higher than the confidence interval, the activity of the combination is superadditive, i.e. a synergistic effect exists.
(§4) To produce a suitable preparation of active compound, 1 part by weight of active compound is mixed with the stated amounts of solvent and emulsifier, and the concentrate is diluted with emulsifier-containing water to the desired concentration.
Cotton leaves (Gossypium hirsutum), which are heavily infested by the cotton aphid (Aphis gossypii) are treated by being dipped into the preparation of active compound of the desired concentration.
After the desired period of time, the killed in % is determined. […] The determined kill rates are inserted into Carpenter's formula.

[2] = tested on: larvae of the mustard beetle (Phaedon cochleariae); assay: Phaedon larvae test (cabbage leaf dip); conditions: activity found; for LC50 after 6 days: Table D (Example D)
Source text: as §1, §2, §3, §4
Cabbage leaves (Brassica oleracea) are treated by being dipped into the preparation of active compound of the desired concentration and are populated with larvae of the mustard beetle (Phaedon cochleariae) while the leaves are still moist.
After the desired period of time, the kill in % is determined. 100% means that all beetle larvae have been killed; 0% means that none of the beetle larvae have been killed. The determined kill rates are inserted in Carpenter's formula.
(§5) To produce a suitable preparation of active compound, 1 part by weight of active compound is mixed with the stated amounts of solvent emulsifier, and the concentrate is diluted with emulsifier-containing water to the desired concentration.

[3] = tested on: caterpillars of the diamondback moths (Plutella xylostella, sensitive strain); assay: Plutella test, sensitive strain (cabbage leaf dip); conditions: activity found
Source text: as §1, §2, §3, §4
Cabbage leaves (Brassica oleracea) are treated by being dipped into the preparation of active compound of the desired concentration and are populated with caterpillars of the diamondback moths (Plutella xylostella, sensitive strain) while the leaves are still moist.
(§6) After the desired period of time, the kill in % is determined. 100% means that all caterpillars have been killed; 0% means that none of the caterpillars have been killed. The determined kill rates are inserted in Carpenter's formula.
as §5

[4] = tested on: green peach aphid (Myzus persicae); assay: Myzus test (cabbage leaf dip); conditions: activity found; for LC50 after 6 days: Table B (Example B)
Source text: as §1, §2, §3, §4
Cabbage leaves (Brassica oleracea), which are heavily infested by the green peach aphid (Myzus persicae) are treated by being dipped into the preparation of active compound of the desired concentration.
After the desired period of time, the killed in % is determined. 100% means that all aphids have been killed. The determined kill rates are inserted into Carpenter's formula.
After the desired period of time, the killed in % is determined. 100% means that all aphids have been killed; 0% means that none of the aphids have been killed. The determined kill rates are inserted into Carpenter's formula.

[5] = tested on: Heliothis armigera caterpillars; assay: Heliothis armigera test (soya bean shoot dip); conditions: activity found
Source text: as §1, §2, §3, §4
Soya bean shoots (glycine max) are treated by being dipped into the preparation of active compound of the desired concentration and are populated with Heliothis armigera caterpillars while the leaves are still moist.
After the desired period of time, the kill in % is determined. 100% means that all caterpillars have been killed; 0% means that none of the caterpillars have been killed. The determined kill rates are inserted into Carpenter's formula (see preceding page).
After the desired period of time, the kill in % is determined. 100% means that all caterpillars have been killed; 0% means that none of the caterpillars have been killed. The determined kill rates are inserted into Carpenter's formula.

[6] = tested on: caterpillars of the diamondback moths (Plutella xylostella, resistant strain); assay: Plutella test, resistant strain (cabbage leaf dip); conditions: Table M (Example M); activity found
Source text: as §1, §2, §3
To produce a suitable preparation of active compound, 1 part by weight of active compound is mixed with the stated amounts of solvent and emulsifier, and the concentrate is diluted with emulsifier-containing water to the desired concentration. […]
After the desired period of time, the kill in % is determined. […] The determined kill rates are inserted in Carpenter's formula.

[7] = tested on: caterpillars of the armyworm (Spodoptera frugiperda); assay: Spodoptera frugiperda test (cabbage leaf dip); conditions: activity found; for LC95 after 3 days: Table E (Example E)
Source text: as §1, §2, §3, §4
Cabbage leaves (Brassica oleracea) are treated by being dipped into the preparation of active compound of the desired concentration and are populated with caterpillars of the armyworm (Spodoptera frugiperda) while the leaves are still moist.
as §6

Compound | LC95 after 6 days [1] [ppm] | LC95 after 6 days ([2]; Table Q (Example Q)) [ppm] | LC95 after 6 days ([3]; Table R (Example R)) [ppm] | LC95 after 1 day ([4]; Table P (Example P)) [ppm] | LC95 after 6 days ([2]; Table G (Example G)) [ppm] | LC50 after 6 days ([5]; Table F (Example F)) [ppm] | LC50 after 6 days [2] [ppm] | LC95 after 6 days ([2]; Table K (Example K)) [ppm] | LC95 after 6 days ([3]; Table C (Example C)) [ppm] | LC95 after 6 days ([3]; Table L (Example L)) [ppm] | LC50 after 6 days [6] [ppm] | LC95 after 3 days [7] [ppm] | LC50 after 6 days ([7]; Table I (Example I)) [ppm] | LC50 after 6 days ([7]; Table N (Example N)) [ppm] | LC50 after 6 days ([5]; Table A (Example A)) [ppm] | LC50 after 6 days ([5]; Table J (Example J)) [ppm] | LC50 after 6 days [4] [ppm] | LC95 after 1 day ([4]; Table H (Example H)) [ppm]
CC1(C)[C@H](C(=O)O[C@H](C#N)c2cccc(Oc3ccccc3)c2)[C@@H]1/C=C(\Cl)C(F)(F)F (racemic) [lambda-cyhalothrin] | 10.545 | 11.234 | 0.09 | 11.234 |  |  |  |  |  |  |  |  |  |  |  |  |  | 
CC[C@H](C)[C@H]1O[C@]2(C=C[C@@H]1C)C[C@@H]1C[C@@H](C/C=C(\C)[C@@H](O[C@H]3C[C@H](OC)[C@@H](O[C@H]4C[C@H](OC)[C@@H](O)[C@H](C)O4)[C@H](C)O3)[C@@H](C)/C=C/C=C3\CO[C@@H]4[C@H](O)C(C)=C[C@@H](C(=O)O1)[C@]34O)O2 [avermectin] |  |  |  |  | 1.431 | 0.094 |  |  |  |  |  |  |  |  |  |  |  | 
CN/C(=N\[N+](=O)[O-])NCc1cnc(Cl)s1 [clothianidin] | 4.954 | 7.690 | 28.46 | 1.303 | 11.234 | 15.0 | 6.708 | 17.504 | 42.493 | 9.045 | 27.271 | 6.099 | 2.450 | 0.178 | 0.997 | 3.527 | 1.013 | 5.988
CNC(=O)Oc1cc(C)c(SC)c(C)c1 [methiocarb] |  |  |  |  |  |  |  |  |  |  |  |  | 51.649 |  |  |  |  | 75.000
CC1(C)C(C=C(Cl)Cl)C1C(=O)OC(C#N)c1ccc(F)c(Oc2ccccc2)c1 (stereo not drawn) [β-cyfluthrin] |  |  |  |  |  |  | 0.646 |  | 0.699 |  |  | 1.113 |  |  | 0.159 |  | 2.583 | 
emamectin benzoate |  |  |  |  |  |  |  | 0.072 |  | 0.0009 | 0.0012 |  |  | 0.003 |  | 0.007 |  | 
